Experimental data published in US20250108119A1, “NOVEL STEROID PAYLOADS, STEROID LINKERS, ADCs CONTAINING AND USE THEREOF” (IMMUNEXT, INC., priority 2021, published 2025).
Entries after “also recorded” stand apart in the source; their conditions may differ.

Columns and labels:
[1] = system: human PBMC; assay: Identification and quantification of released payload in human PBMC (MS); format: in vitro ADME; conditions: 4 hrs, same antibody
Procedure: In all the following experiments, human PBMC, isolated from 1 healthy donor per study, were treated with exemplary anti-VISTA glucocorticoid conjugates according to the invention to allow identification and quantification of the released payload.
In the present experiments, after incubating PBMC with glucocorticoid (GC) antibody drug conjugates (ADC) for 4h, cells were harvested and assessed for both FKBP5 transcription induction via quantitative real time PCR (qPCR) as well as assessed via mass spectrometry (MS) for released payload identification and quantification.
Isolated PBMCs were resuspended in RPMI 1640 containing 10% human AB serum, 10 mM Hepes, 1× Penicillin/Streptomycin/L-Glutamine (assay media).
PBMCs from 1 donor were washed 2× in PBS, and then resuspended at 1×10^7/mL in media. […]
Remaining cells for each treatment were dived into aliquots representing 50 million cells per aliquot (for metabolite quantification only one aliquot per condition was generated). […]
Media was removed from each cell pellet with the media then set aside at −80C until it could be assessed for the concentration of effluxed payload. […]
Briefly, pre-chilled 70% ACN (extraction buffer) was added to the PBMC pellets for extraction. […] was injected onto the LCMS (Luna C18 (2) column, Thermo Scientific Q Exactive Hybrid Quadrupole Orbitrap) and resulting masses assessed. […]

[2] = system: peritoneal resident macrophages (PRM); assay: In vivo treatment/ex vivo PRM activation, TNFα and IL-6 in supernatant; design: species or system hVISTA mice; conditions: linker/payloads as anti-VISTA conjugates
Procedure: Based thereon we developed a model to allow us to evaluate long-term anti-inflammatory impact of ADC on specific target populations, such as PRMs. […] In the absence of GC treatment, after 2h PRMs become highly activated as shown by increases in cytokine production. […] The objective of these studies was to evaluate the efficacy and pharmacodynamic range of INX human VISTA antibodies conjugated to a glucocorticoid payload as compared to free Dex.
After euthanasia, mice were injected in the peritoneal cavity with 7 ml of PBS/0.5% BSA/2 mM EDTA. After a brief massage of the peritoneum, a small incision was performed and the peritoneal lavage collected. PRM were isolated using negative selection (Miltenyi kit, ref 130-110-434). Spleen were dissected and dissociated mechanically; monocytes were isolated using […] (Stem Cell, EasySep™ Mouse CD11b Positive Selection Kit II).
PRMs were resuspended in RPMI 1640 with 10% FBS, 10 mM Hepes, Penicillin/Streptomycin and glutamine and 100,000 cells were plated per well in a 96-well tissue culture plate. Supernatants were collected at 2 and 24h post plating and stored at −80° C. […]
• BioLegend (cat #430904) ELISA MAX Deluxe Set Mouse TNF-α • BioLegend (cat #431304) ELISA MAX Deluxe Set Mouse IL-6
ELISAs were conducted following the manufacturer's included protocol.

[3] = system: FKBP5; assay: FKBP5 transcription in isolated human monocytes, B cells and Tregs; format: cell-based
From the text: Monocytes or B cells were isolated from healthy donor blood samples and treated with free steroid, anti-VISTA conjugated steroid, or conjugated isotype control. RNA was isolated, and change in FKBP5 transcript level assessed by qPCR.
The various immune populations were isolated using different cell isolation kits and following manufacturer instructions: • EasySep Human monocyte enrichment kit without CD16 depletion (StemCell cat #19058) • Pan B cell isolation kit, human (Miltenyi Biotec, 130-101-638). • EasySep™ Human CD4+CD127 low CD49d-regulatory T cell enrichment Kit (StemCell cat #19232)
Monocytes, B cells or Tregs were plated (from single donors) at 2×10^6 cells per well in a 12-well plate in RPMI, 10% human AB serum, 10 mM Hepes, 1× Penicillin/Streptomycin/Glutamine.
For single dose experiments, cells were treated with 20 nM free J payload or INX-SM-3 payload or the molar payload equivalent of huIgG1si J, INX201J or INX231P (the linked form of INX-SM-3). […]
After one wash with PBS, RNA was isolated from cell pellets using either the RNeasy Plus Mini kit (Qiagen, PN: 74136) or NucleoSpin RNA Plus (Macherey-Nagel #740984.250). […] RNA concentration was assessed by UV spectroscopy using a Nanodrop 2000. […]
Quantitative Real-Time PCR was done using Taqman master mix 2× kit (#4369016) and run on a QuantStudio3 from Applied Biosystem. […]

[4] = system: LPS stimulated human PBMCs; assay: LPS stimulated human PBMC, IL-1β and IL-6 ELISA; format: cell-based
Summary of the method: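 Human PBMC (1-2 healthy donors), 150,000 cells/well, treated with test agents at 1,000 nM down to 1 nM or 0.2 nM, in duplicate. LPS at 1 ng/ml added immediately after free payload or 4 h after conjugates; IL-1β and IL-6 in supernatants measured by ELISA.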

[5] = system: human PBMC; assay: Cytokine production (IL-1β, IL-6) at 24 hr by human PBMC incubated with 1 ng/mL LPS; format: cell-based; conditions: free steroid payloads, serial dilutions, 1 ng/mL LPS, 24 hr
Summary of the method: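 Human PBMC were stimulated with 1 ng/mL LPS together with serial dilutions of steroid payloads or glucocorticoid conjugates, spanning up to 8,000 nM down to 0.032 nM depending on the series. IL-1β and IL-6 were measured at 24 hr from technical duplicates, with 1-2 donors. Values above the ULOQ were extrapolated.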

[6] = Linker payload and released payload in serum and peripheral blood leukocytes (MS); format: in vivo, cynomolgus monkey; conditions: INX234P 15 mg/Kg i.v., analyte as labelled
Procedure: MS quantification was performed by Quintara Discovery on cell pellets and on serum.
Briefly, cell pellets were suspended with 100 μL of 20% methanol.
Normalization of the data to cell volume (ng/ml) was done by first calculating the cell numbers based on the PBL or WBC hematological count and the fixed volume for each sample processed for MS. We then converted to volume by using the arbitrary mean corpuscular volume (MCV) of […] per cell that is the most frequently adopted (3).
Each plasma sample was extracted with acetonitrile: methanol containing internal standard (Verapamil).

[7] = molecular target: CD163 on human blood cells (human) (UniProt Q86VB7); assay: flow cytometry, AF647-labelled antibody, bead-calibrated; CD14+ monocytes, human PBMC, n=5 donors, mean±SD
[8] = molecular target: CD163 on human blood cells (human) (UniProt Q86VB7); assay: flow cytometry, AF647-labelled antibody, bead-calibrated; CD14+ monocytes, human whole blood, n=3 donors, mean±SD
[9] = molecular target: T1, human VISTA on cells (human, UniProt Q9H7M9 33-311); assay: flow cytometry, AF488-labelled antibody on CD14+ monocytes of human PBMC, MFI normalised to INX200 at t=0
T1 sequence: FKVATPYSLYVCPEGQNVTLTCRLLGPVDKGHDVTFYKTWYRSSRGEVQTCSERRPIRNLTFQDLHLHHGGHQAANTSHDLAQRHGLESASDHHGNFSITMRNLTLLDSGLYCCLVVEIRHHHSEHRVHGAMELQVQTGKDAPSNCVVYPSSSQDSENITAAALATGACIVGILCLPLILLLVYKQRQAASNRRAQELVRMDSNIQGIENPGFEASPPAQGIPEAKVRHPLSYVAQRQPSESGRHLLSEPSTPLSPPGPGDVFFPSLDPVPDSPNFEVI

[10] = molecular target: T1, human VISTA on cells; assay: cell-based or functional assay

Sequence of CD163 on human blood cells (human) (Q86VB7 42-1156): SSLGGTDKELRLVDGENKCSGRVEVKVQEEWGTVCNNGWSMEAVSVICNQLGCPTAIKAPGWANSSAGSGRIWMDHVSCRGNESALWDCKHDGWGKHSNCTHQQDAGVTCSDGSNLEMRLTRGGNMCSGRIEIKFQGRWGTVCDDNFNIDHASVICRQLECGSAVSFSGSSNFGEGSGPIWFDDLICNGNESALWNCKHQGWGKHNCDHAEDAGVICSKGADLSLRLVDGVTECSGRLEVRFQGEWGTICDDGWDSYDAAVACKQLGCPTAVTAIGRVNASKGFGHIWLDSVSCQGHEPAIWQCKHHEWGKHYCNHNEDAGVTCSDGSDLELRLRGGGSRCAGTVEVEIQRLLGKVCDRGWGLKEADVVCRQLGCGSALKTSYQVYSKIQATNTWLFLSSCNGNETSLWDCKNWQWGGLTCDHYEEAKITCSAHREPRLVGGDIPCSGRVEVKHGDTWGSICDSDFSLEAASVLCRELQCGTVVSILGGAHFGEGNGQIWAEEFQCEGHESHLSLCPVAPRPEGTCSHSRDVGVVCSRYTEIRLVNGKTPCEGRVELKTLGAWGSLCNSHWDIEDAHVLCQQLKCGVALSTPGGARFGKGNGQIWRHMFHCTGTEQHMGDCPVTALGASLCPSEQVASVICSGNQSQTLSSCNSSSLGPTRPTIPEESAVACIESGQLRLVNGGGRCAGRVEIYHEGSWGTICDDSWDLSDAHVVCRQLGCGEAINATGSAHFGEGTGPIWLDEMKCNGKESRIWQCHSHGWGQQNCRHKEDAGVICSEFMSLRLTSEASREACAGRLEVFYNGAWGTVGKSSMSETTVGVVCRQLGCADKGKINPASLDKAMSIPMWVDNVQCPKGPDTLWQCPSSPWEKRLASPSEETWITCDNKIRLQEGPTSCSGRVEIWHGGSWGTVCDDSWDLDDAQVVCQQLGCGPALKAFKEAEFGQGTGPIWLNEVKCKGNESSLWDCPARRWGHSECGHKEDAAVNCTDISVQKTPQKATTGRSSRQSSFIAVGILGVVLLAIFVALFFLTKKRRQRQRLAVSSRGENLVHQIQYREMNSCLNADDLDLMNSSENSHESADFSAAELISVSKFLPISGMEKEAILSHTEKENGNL

Molecule: C[C@]12C=CC(=O)C=C1CC[C@@H]1[C@@H]2[C@@H](O)C[C@@]2(C)[C@H]1C[C@H]1O[C@@H](c3ccc(CC45CC(NC(=O)[C@H](CCC(=O)O)NC(=O)CNC(=O)CBr)(C4)C5)cc3)O[C@]12C(=O)CO [INX P, (S)-4-(2-(2-bromoacetamido)acetamido)-5-((3-(4-((6aR,6bS,7S,8aS,8bS,10R,11aR,12aS,12bS)-7-hydroxy-8b-(2-hydroxyacetyl)-6a,8a-dimethyl-4-oxo-2,4,6a,6b,7,8,8a,8b,11a,12,12a,12b-dodecahydro-1H-naphtho[2′,1′:4,5]indeno[1,2-d][1,3]dioxol-10-yl)benzyl)bicycle[1.1.1]pentan-1-yl)amino)-5-oxopentanoic acid]
- released payload relative to INX J / INX231J [1]: ~3 ×
- potency in PRM cytokine model when dosed 7 days early (conclusions) [2]: show similar potency when dosed 7 days early

Molecule: C[C@]12C=CC(=O)C=C1CC[C@@H]1[C@@H]2[C@@H](O)C[C@@]2(C)[C@H]1C[C@H]1O[C@@H](c3ccc(CC45CC(N)(C4)C5)cc3)O[C@]12C(=O)CO [INX-SM-3, (6aR,6bS,7S,8aS,8bS,10R,11aR,12aS,12bS)-10-(4-((3-aminobicyclo[1.1.1]pentan-1-yl)methyl)phenyl)-7-hydroxy-8b-(2-hydroxyacetyl)-6a,8a-dimethyl-1,2,6a,6b,7,8,8a,8b,11a,12,12a,12b-dodecahydro-4H-naphtho[2′,1′:4,5]indeno[1,2-d][1,3]dioxol-4-one]
- FKBP5 transcription in Tregs ([3]; Experiment 3: 20 nM payload, 2 donors): lead to increased FKBP5 transcription
- inhibition of IL-1β and IL-6 production ([4]; Experiment 1: free payload 1000-1 nM, 1 ng/ml LPS, 24 hr, n=1 donor): inhibit both IL-1β and IL-6 production; also recorded: the most potent compound among these three
- inhibition of IL-1β production ([4]; Experiment 2: free payload 1000-1 nM, 24 hr, n=1 donor): show inhibition in IL-1β production; also recorded: again the most potent compound among these compounds tested
- inhibition of IL-1β production ([4]; Experiment 8: free payload 1000-0.5 nM): robust inhibition in IL-1B production
- inhibition of IL-1β production [5]: inhibit; also recorded: robust inhibition
- inhibition of IL-6 production [5]: inhibit

Molecule: C[C@]12C=CC(=O)C=C1CC[C@@H]1[C@@H]2[C@@H](O)C[C@@]2(C)[C@H]1C[C@H]1O[C@@H](c3ccc(CC45CC(NC(=O)[C@H](CCC(=O)O)NC(=O)CNC(=O)CSC[C@H](N)C(=O)O)(C4)C5)cc3)O[C@]12C(=O)CO [P-cys, (S)-4-(2-(2-(((R)-2-amino-2-carboxyethyl)thio)acetamido)acetamido)-5-((3-(4-((6aR,6bS,7S,8aS,8bS,10R,11aR,12aS,12bS)-7-hydroxy-8b-(2-hydroxyacetyl)-6a,8a-dimethyl-4-oxo-2,4,6a,6b,7,8,8a,8b,11a,12,12a,12b-dodecahydro-1H-naphtho[2′,1′:4,5]indeno[1,2-d][1,3]dioxol-10-yl)benzyl)bicyclo[1.1.1]pentan-1-yl)amino)-5-oxopentanoic acid]
- serum level by day 8 (192 hr) post injection [6]: below detection
- time of peak concentration in serum [6]: ~12 h
- Kp ([6]; cynomolgus monkey, in vivo, read-out: intracellular (PBL) levels as compared to serum): 100

Molecule: C[C@]12C=CC(=O)C=C1CC[C@@H]1[C@@H]2[C@@H](O)C[C@@]2(C)[C@H]1C[C@H]1O[C@@H](c3ccc(Cc4cccc(N)c4)cc3)O[C@]12C(=O)CO [free J payload, reference compound]
- FKBP5 transcription in monocytes and B cells ([3]; Experiment 1: 20 nM payload, 1 day): robust increase in FKBP5 transcription was observed with free J payload in both monocytes and B cells

Molecule: CD163 Alexa Fluor 647 clone GHI/61 (BioLegend) (antibody)
- antibody binding capacity (ABC) (ABC (molecules per cell)) [7]: 36700
- antibody binding capacity (ABC) (ABC (molecules per cell)) [8]: 13100

Molecule: Human IgG1si (antibody)
- nonspecific signal at 0 min relative to INX200 (MFI, percent) [9]: 5.9%

B1: INX201J (other)
VH: QVQLVQSGAEVKKPGASVKVSCKASGYTFANYLIGWVRQAPGQRLEWMGDIYPGGGFISYNEKFKGRVTITRDTSASTAYMELSSLRSEDTAVYYCARRFDYGGYFFDYWGQGTLVTVSS
VL: DIVMTQSPLSLPVTPGEPASISCRSSQSIVHSNGNIYLEWYLQKPGQSPQLLIYKVSNRFSGVPDRFSGSGSGTDFTLKISRVEAEDVGVYYCFQGSHVPWTFGQGTKLEIK
modifications: linker/payload INX J on the interchain disulfide cysteines; linker/payload INX J (protease sensitive linker, budesonide analog INX J-2) on the interchain disulfide cysteines, DAR 8.0
- FKBP5 transcription (qRT-PCR) in isolated human Tregs, 20 nM payload, against conjugated isotype control [10]: 2.1 fold
